Laboratory results published in patent US10851075B2, “Stat3 pathway inhibitors and cancer stem cell inhibitors” (Sumitomo Dainippon Pharma Oncology, Inc., priority 2007, dated 2020).
Entries after “also recorded” stand apart in the source; their conditions may differ. Read-outs that look alike come from different tables or passages of the source.

Legend:
HeLa cells = assay: MTT cell viability, HeLa; type: cell-based; settings: Homo sapiens, MTT at 24 hours
Excerpt: (§1) Cell Culture: HeLa, DU145, H1299, DLD1, SW480, A549, MCF7, LN18, HCT116, HepG2, Paca2, Panel, LNcap, FaDu, HT29, and PC3 cells (ATCC, Manassas, Va.) were maintained in Dulbecco's Modified Eagle Medium (DMEM) (Invitrogen, Carlsbad, Calif.) supplemented with 10% fetal bovine serum (MS) (Gemini Bio-Products, West Sacramento, Calif.) and 5% penicillin/streptomycin/amphotercin B (Invitrogen).
(§2) Cell Viability Determination: For 3-(4,5 dimethylthiazol-2-yl)-2,5-diphenyltetrazolium (MTT) (Sigma-Aldrich, St. Louis, Mo.) analysis, cells were plated in 96 well plates at 10,000 cells per well. 24 hours after plating, compound was added to cells at indicated doses. 22 hours following compound addition, MTT was added to each well (0.5 mg/ml, final concentration) and plates were incubated for an additional 2 hours at 37° C., Medium was then aspirated and the formazan product was solubilized in 100 μl of isopropyl alcohol. The absorbance of each well was measured at 570 nm using a microplate reader.
(§3) Identification of compounds that are apoptotic to a broad spectrum of cancer cells in vitro. Cells plated in 96 well plates and treated with indicated compounds were subjected to MTT analysis at 24 hours following compound treatment to determine cell viability.

DU145 cells = assay: MTT cell viability, DU145; type: cell-based; settings: Homo sapiens, DU-145, MTT at 24 hours
Excerpt: as §1, §2, §3

[1] = target: T1, Stat3 DNA-binding activity (Homo sapiens, UniProt P40763); assay: Stat3 DNA binding assay (EMSA), HeLa nuclear extract; type: biochemical; settings: for inhibition % 1 × MTT IC50: compound at 1 × MTT IC50, untreated Stat3 retarded band set as 100; for inhibition % 3 × MTT IC50: compound at 3 × MTT IC50, untreated Stat3 retarded band set as 100
T1 construct: endogenous in cells; host or cells: HeLa cells (nuclear extract)
Method: STAT3 DNA Binding Assay: Electrophoretic mobility shift assay (EMSA) was performed as described by the manufacturer (Li-Cor Biosciences, Lincoln, Nebr.). Briefly, nuclear extracts were made from HeLa cells using the NucBuster Protein Extraction Kit as described by the manufacturer (EMD Biosciences, San Diego, Calif.). 5 μg of nuclear extract was pre-incubated with the indicated dose of indicated compound for 30 minutes prior to a 15-minute incubation with the IR700-labeled consensus Stat3 oligonucleotide. Samples were then electrophoresed on a polyacrylamide gel and directly scanned using the Odyssey infrared imaging system (Li-Cor Biosciences). For the enzyme-linked immunosorbent assay (ELISA), 5 μg of nuclear extract was preincubated with indicated concentration of indicated compound for 30 minutes prior to the addition of biotinylated oligo (5′-Biotin-[…]-3′). Stat3-DNA complexes were then captured on streptavidin coated 96 well plates (Pierce, Rockford, Ill.). Bound complexes were then incubated with Stat3 polyclonal antibody (Santa Cruz Biotechnology, Santa Cruz, Calif.) followed by anti-rabbit HRP conjugated secondary antibody (GE Healthcare, Pittsburgh, Pa.). Bound antibody was then visualized by addition of TMB substrate (Pierce) and absorbance measured at 450 nm.
Inhibition of Stat3 DNA-binding activity. Nuclear extracts from HeLa cells, which contain constitutively activated Stat3 as detected by phoshporylation at the tyrosine 705 residue, were used to perform Stat3 EMSAs to monitor Stat3 DNA binding activity. Nuclear extracts were incubated with indicated compound prior to incubation with IR700-labeled Stat3 consensus oligonucleotide. Binding of Stat3 to the oligonucleotide was monitored by gel electrophoresis and detection using a LiCor Odyssey infrared scanner.
To calculate the inhibition %, the density of the untreated Stat3 retarded band (control) was set as 100 and the inhibition % was the difference between the control and the relative DNA binding activity of the drug-treated samples.

CD44^high FaDu cells = assay: Anti-CSC MTT assay, CD44high FaDu cells; type: cell-based; settings: Homo sapiens, 48 h
Method: as §2
CD44^high cells were isolated by FACS according to the methods described in Ponti et al., with slight modification. Briefly, after trypsinization and recovery of cells for 30 minutes at 37° C. in growth media, cells were pelleted at 400×g and were resuspended in PBS with 2% FBS and 1 mM EDTA at 1×10^6 cells/mL. Cells were then incubated on ice with a 1:100 dilution of CD44-FITC (BD Biosicences, San Diego, Calif.) for 15 minutes. Alternatively, CD24-PE (BD Bioscences, San Diego, Calif.) (1:100) was utilized for negative selection. After washing three times, cells were resuspended at 2×10^6/mL and passed through a […] mesh before sorting
(§4) In order to test compounds for anti-CSC activity, freshly isolated CSCs (SW480 Hoechst SP cells or CD44^high FaDu cells) were exposed to a dose range (30-0.117 μM) of compound for 48 h before examining cell viability by MTT assay. IC50s were estimated by plotting the percentage of surviving cells. As shown in Table 7 and Table 8, the compounds of present invention can target cancer stem cells.

CD44^low FaDu cells = assay: Anti-CSC MTT assay, CD44low FaDu cells; type: cell-based; settings: Homo sapiens, 48 h
H1299 cells = assay: MTT cell viability, H1299; type: cell-based; settings: Homo sapiens, NCI-H1299, MTT at 24 hours
Excerpt: as §1, §2, §3

SW480 Hoechst SP cells = assay: Anti-CSC MTT assay, SW480 Hoechst side population (SP) cells; type: cell-based; settings: Homo sapiens, 48 h
Method: as §2
(§5) Hoechst Side Population: To identify and isolate side population (SP) and non-SP fractions, SW480 cells were removed from the culture dish with trypsin and EDTA, pelleted by centrifugation, washed with phosphate-buffered saline (PBS), and resuspended at 37° C. in Dulbecco's modified Eagle's medium (DMEM) containing 2% FBS and 1 rnM HEPES. The cells were then labeled with Hoechst 33342 (Invitrogen) at a concentration of 5 μg/mL. The labeled cells were incubated for 120 minutes at 37° C., either alone or with 50 μM verapamil (Sigma-Aldrich, St. Louis). After staining, the cells were suspended in Hanks' balanced saline solution (MISS; Invitrogen) containing 2% FBS and 1 mM HEPES, passed a through 40 μm mesh filter, and maintained at 4° C. until flow cytometry analysis. The Hoechst dye was excited at 350 nm, and its fluorescence was measured at two wavelengths using a 450 DF10 (450/20 nm band-pass filter) and a 675LP (675 nm long-pass edge filter) optical filter. The gating on forward and side scatter was not stringent, and only debris was excluded.
as §4

SW480 NSP cells = assay: Anti-CSC MTT assay, SW480 non-SP (NSP) cells; type: cell-based; settings: Homo sapiens, 48 h
Method: as §2, §5, §4

A549 cells = assay: MTT cell viability, A549; type: cell-based; settings: Homo sapiens; A549, Lung; MTT at 24 hours following compound treatment; Table 3
Excerpt: as §1, §2, §3

MCF7 cells = assay: MTT cell viability, MCF7; type: cell-based; settings: Homo sapiens; MCF7, Breast; MTT at 24 hours; Table 3
Excerpt: as §1, §2, §3

DLD1 cells = assay: MTT cell viability, DLD1; type: cell-based; settings: Homo sapiens, DLD-1; DLD1, Colon; MTT at 24 hours; Table 3
Excerpt: as §1, §2, §3

SW480 cells = assay: MTT cell viability, SW480; type: cell-based; settings: Homo sapiens; SW480, Colon; MTT at 24 hours; Table 3
Excerpt: as §1, §2, §3

HCT116 cells = assay: MTT cell viability, HCT116; type: cell-based; settings: Homo sapiens, HCT-116; HCT116, Colon; MTT at 24 hours; Table 3
Excerpt: as §1, §2, §3

HT29 cells = assay: MTT cell viability, HT29; type: cell-based; settings: Homo sapiens, HT-29; HT29, Colon; MTT at 24 hours; Table 3
Excerpt: as §1, §2, §3

HepG2 cells = assay: MTT cell viability, HepG2; type: cell-based; settings: Homo sapiens; HepG2, Liver; MTT at 24 hours; Table 3
Excerpt: as §1, §2, §3

Paca2 cells = assay: MTT cell viability, Paca2; type: cell-based; settings: PaCa-2; Paca2, Pancreas; MTT at 24 hours; Table 3
Excerpt: as §1, §2, §3

Panc1 cells = assay: MTT cell viability, Panc1; type: cell-based; settings: Homo sapiens, PANC-1; Panc1, Pancreas; MTT at 24 hours; Table 3
Excerpt: as §1, §2, §3

PC3 cells = assay: MTT cell viability, PC3; type: cell-based; settings: Homo sapiens, PC-3; PC3, Prostate; MTT at 24 hours; Table 3
Excerpt: as §1, §2, §3

LNCap cells = assay: MTT cell viability, LNCap; type: cell-based; settings: Homo sapiens, Prostate, MTT at 24 hours, Table 3
Excerpt: as §1, §2, §3

FaDu cells = assay: MTT cell viability, FaDu; type: cell-based; settings: Homo sapiens, MTT at 24 hours
Excerpt: as §1, §2, §3

[2] = tested on: Stat3 transcription activity; assay: Stat3-luciferase (Stat3-Luc) reporter assay in HeLa cells, OSM stimulated; type: cell-based; settings: Homo sapiens, compound 30 minutes before 25 ng/ml oncostatin M, 6 hours, read-out: IC50 in Stat3-Luc assays
Method: Luciferase Reporter Assay: HeLa Cells were co-transfected with Stat3-luciferase (Stat3-Luc) reporter vector (Panomics, Fremont, Calif.) and Renilla luciferase (Promega, Madison, Wis.) using Lipofectamine 2000 as described by the manufacturer (Invitrogen). Following transfection, cells were maintained in medium containing 0.5% FBS for 24 hours. Cells were then treated with the indicated compound for 30 minutes prior to the addition of 25 ng/ml oncostatin M (OSM) (R&D Systems, Minneapolis, Minn.) to the medium. 6 hours following OSM addition, cells were harvested and levels of firefly and renilla luciferase were measured using the Dual-Glo Luciferase Assay System as described by the manufacturer (Promega).
Inhibition of Stat3 transcription activity. Compounds were tested for their ability to inhibit Stat3 transcription activation activity in cells using a Stat3-luciferase (Stat3-luc) reporter construct. Cells transfected with Stat3-luc were cultured in reduced serum medium prior to addition of indicated compound for 30 minutes. Cells were then stimulated with 25 ng/ml oncostatin (OSM) for 6 hours followed by detection of Stat3-luc reporter activity.

[3] = Hela, Table 4, read-out: IC50 (μM) Hela
[4] = DU145, Table 4, read-out: IC50 (μM) DU145
[5] = H1299, Table 4, read-out: IC50 (μM) H1299
[6] = H1299, Lung, Table 3, read-out: IC50
[7] = HeLa, Cervix, Table 3, read-out: IC50
[8] = DU145, Prostate, Table 3, read-out: IC50
[9] = Table 4, read-out: IC50 (μM) FaDu

T1 sequence (P40763 whole entry): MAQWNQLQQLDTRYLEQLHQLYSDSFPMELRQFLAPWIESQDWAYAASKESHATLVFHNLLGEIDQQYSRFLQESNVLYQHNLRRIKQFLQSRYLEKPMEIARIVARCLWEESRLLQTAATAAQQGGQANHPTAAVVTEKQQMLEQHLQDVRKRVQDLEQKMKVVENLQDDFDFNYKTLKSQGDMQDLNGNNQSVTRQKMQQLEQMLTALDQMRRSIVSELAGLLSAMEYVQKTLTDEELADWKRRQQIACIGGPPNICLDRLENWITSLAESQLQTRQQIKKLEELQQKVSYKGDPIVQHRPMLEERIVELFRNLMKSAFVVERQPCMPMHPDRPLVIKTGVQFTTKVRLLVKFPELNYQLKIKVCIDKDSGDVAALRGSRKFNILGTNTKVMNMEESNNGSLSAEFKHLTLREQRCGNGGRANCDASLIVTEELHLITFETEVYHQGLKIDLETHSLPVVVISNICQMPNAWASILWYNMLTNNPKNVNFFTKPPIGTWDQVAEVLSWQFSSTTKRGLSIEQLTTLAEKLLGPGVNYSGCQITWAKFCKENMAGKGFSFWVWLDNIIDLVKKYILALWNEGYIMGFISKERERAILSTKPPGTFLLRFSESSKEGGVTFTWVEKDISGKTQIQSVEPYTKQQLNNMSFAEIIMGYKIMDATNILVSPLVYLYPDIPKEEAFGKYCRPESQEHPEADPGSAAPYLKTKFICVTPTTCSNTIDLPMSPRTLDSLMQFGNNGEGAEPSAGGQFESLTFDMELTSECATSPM

SMILES	IC50 (HeLa cells; [3])	IC50 (DU145 cells; [4])	inhibition % 1 × MTT IC50 [1]	inhibition % 3 × MTT IC50 [1]	IC50 (CD44^high FaDu cells)	IC50 (CD44^low FaDu cells)	IC50 (H1299 cells; [5])	IC50 (SW480 Hoechst SP cells)	IC50 (SW480 NSP cells)	IC50 (A549 cells)	IC50 (H1299 cells; [6])	IC50 (MCF7 cells)	IC50 (HeLa cells; [7])	IC50 (DLD1 cells)	IC50 (SW480 cells)	IC50 (HCT116 cells)	IC50 (HT29 cells)	IC50 (Paca2 cells)	IC50 (Panc1 cells)	IC50 (DU145 cells; [8])	also measured
C=Cc1cc2c(o1)C(=O)c1cc(F)ccc1C2=O [Compound 202]	4.56 µM	2.65 µM	50%	46%	2.4 µM	2.25 µM															
O=C1c2ccccc2C(=O)c2oc(C(O)c3ccccc3)cc21 (centres unmarked) [Compound 302]	7.8 µM	4.9 µM	6%	25%	0.68 µM	3.68 µM	7.2 µM	2.06 µM	1.29 µM												
CC(O)c1cc2c(o1)C(=O)c1cc(F)ccc1C2=O (centres unmarked) [Compound 304]	1.67 µM	1.84 µM	25%	55%	2.41 µM	2.49 µM															
CC(=O)c1cc2c(o1)C(=O)c1ccccc1C2=O [Compound 401]	0.428 µM	0.116 µM					0.234 µM	0.34 µM	0.33 µM	950 nM	0.23 µM	460 nM	0.43 µM	330 nM	320 nM	580 nM	1270 nM	110 nM	1700 nM	0.12 µM	IC50 (HepG2 cells): 250 nM; IC50 (PC3 cells): 2370 nM; IC50 (LNCap cells): 630 nM; IC50 (FaDu cells; Head and Neck, Table 3, read-out: IC50): 0.39 µM; IC50 (FaDu cells; [9]): 0.39 µM; inhibition of Stat3 DNA binding (in words) ([1]; HeLa nuclear extract, FIG. 6A/6B): Dose dependent inhibition of Stat3 DNA binding; also recorded: inhibits Stat3 DNA-binding activity
O=C(c1ccccc1)c1cc2c(o1)C(=O)c1ccccc1C2=O [Compound 412]	1.69 µM	0.327 µM					0.524 µM			3160 nM	0.52 µM	1150 nM	1.69 µM	1110 nM	1310 nM	2020 nM	4640 nM	640 nM	3690 nM	0.33 µM	IC50 (PC3 cells): 4450 nM; IC50 [2]: ~750 nM
CC(=O)c1cc2c(o1)C(=O)c1cc(F)ccc1C2=O [Compound 418]	0.488 µM	0.164 µM	39%	63%			0.317 µM	0.34 µM	0.33 µM	1060 nM	0.34 µM	460 nM	0.8 µM	640 nM	760 nM	610 nM	1830 nM	210 nM	1540 nM	0.18 µM	IC50 (PC3 cells): 3040 nM
CC(=O)c1oc2c(c1CBr)C(=O)c1ccccc1C2=O [Compound 420]			47%	63%				0.59 µM	0.51 µM												IC50 (FaDu cells; [9]): 3.5 µM
